Reference: ChEMBL document CHEMBL1201862, “PubChem BioAssay data set” (2004)
Activity calls are given as the source filed them.

Key:
[1] = Luminescence Cell-Based Dose Retest to Confirm Inhibitors of Cancer Stem Cells. [Related pubchem assays (depositor defined):AID2717, AID2721]; format: functional; details: Homo sapiens
[2] = target: T1, Polyadenylate-binding protein 1 (Homo sapiens, UniProt P11940); test: MLLE binding blockers, Cy5 peptide tracer – biochemical, fluorescence polarization, Cy5-PAM2 peptide, secondary, miRNA deadenylation inhibitor project, dose response (AID 602260); format: functional; details: read-out: IC50_Mean
T1 sequence (P11940 whole entry, the tested form may be a part): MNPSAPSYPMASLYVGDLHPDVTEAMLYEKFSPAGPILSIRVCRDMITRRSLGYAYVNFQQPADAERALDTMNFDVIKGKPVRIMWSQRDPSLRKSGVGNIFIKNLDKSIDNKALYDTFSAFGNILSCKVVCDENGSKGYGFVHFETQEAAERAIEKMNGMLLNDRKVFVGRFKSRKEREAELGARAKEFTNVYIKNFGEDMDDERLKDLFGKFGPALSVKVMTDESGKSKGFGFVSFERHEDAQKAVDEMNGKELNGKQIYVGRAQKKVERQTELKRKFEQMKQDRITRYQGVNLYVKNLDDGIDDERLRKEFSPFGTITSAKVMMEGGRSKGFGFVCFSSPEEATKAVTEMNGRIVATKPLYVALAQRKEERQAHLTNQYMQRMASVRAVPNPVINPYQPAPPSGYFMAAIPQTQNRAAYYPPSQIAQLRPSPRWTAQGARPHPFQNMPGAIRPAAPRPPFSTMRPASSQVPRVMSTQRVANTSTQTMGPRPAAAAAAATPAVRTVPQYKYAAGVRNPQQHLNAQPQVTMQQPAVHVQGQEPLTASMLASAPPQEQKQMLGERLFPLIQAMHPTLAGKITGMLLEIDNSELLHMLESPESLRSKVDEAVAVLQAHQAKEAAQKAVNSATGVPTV

[3] = target: T1, Polyadenylate-binding protein 1; test: MLLE domain peptide-binding blockers, IC50 – biochemical, fluorescence polarization, FITC-PAM2 peptide, dose response (AID 602259); format: functional; details: read-out: IC50_Mean
[4] = target: T2, Heat shock factor protein 1 (Mus musculus, UniProt P38532); test: decrease of HSF1-responsive luciferase luminescence – cell-based, NIH3T3, dose retest, confirmation (AID 2382); format: functional;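 note: NIH3T3 fibroblasts with HSF1-driven luciferase reporter stressed by proteasome inhibitor MG132; luminescence from HSF1-driven luciferase expression after 8 hours of MG132 stress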
T2 sequence (P38532 whole entry): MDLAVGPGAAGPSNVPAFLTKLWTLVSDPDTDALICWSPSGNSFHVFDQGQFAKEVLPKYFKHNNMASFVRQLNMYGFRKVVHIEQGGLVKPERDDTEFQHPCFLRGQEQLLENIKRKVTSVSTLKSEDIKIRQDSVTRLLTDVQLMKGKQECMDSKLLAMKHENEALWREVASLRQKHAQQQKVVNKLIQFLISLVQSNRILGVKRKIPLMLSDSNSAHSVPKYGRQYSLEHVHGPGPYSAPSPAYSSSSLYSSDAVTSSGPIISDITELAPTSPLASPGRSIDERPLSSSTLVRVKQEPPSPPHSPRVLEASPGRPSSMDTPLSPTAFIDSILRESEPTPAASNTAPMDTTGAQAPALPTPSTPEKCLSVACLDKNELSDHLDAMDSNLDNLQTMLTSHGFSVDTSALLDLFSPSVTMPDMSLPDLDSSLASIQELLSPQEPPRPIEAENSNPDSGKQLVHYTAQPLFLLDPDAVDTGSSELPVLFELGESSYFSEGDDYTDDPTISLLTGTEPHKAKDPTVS

[5] = target: T3, Rac GTPase-activating protein 1 (Homo sapiens, UniProt Q9H0H5); test: blockers of MgcRacGAP-driven Rac1 GTP hydrolysis – biochemical, ADP Hunter fluorescence, primary and confirmatory, confirmation (AID 624330); format: functional
T3 sequence (Q9H0H5 whole entry): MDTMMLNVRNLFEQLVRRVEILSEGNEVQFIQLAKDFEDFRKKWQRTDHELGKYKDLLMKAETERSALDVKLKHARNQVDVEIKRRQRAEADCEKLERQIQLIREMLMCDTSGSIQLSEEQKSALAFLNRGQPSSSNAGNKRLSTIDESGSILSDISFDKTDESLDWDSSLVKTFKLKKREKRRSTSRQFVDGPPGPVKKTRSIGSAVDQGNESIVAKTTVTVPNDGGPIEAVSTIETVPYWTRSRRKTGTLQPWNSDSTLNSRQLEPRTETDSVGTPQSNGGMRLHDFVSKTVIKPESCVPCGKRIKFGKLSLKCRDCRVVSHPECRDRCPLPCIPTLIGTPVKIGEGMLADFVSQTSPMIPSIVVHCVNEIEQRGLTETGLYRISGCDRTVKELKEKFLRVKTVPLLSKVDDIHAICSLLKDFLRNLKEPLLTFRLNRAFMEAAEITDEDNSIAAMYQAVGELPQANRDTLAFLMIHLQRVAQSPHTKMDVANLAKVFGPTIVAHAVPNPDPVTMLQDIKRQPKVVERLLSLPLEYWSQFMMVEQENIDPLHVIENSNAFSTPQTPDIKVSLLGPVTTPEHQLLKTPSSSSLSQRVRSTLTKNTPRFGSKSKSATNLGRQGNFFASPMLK

[6] = target: T4, RNA-binding protein pos-1 (Caenorhabditis elegans, UniProt G5EF15); test: disruptors of C. elegans POS-1 RNA interaction – biochemical, fluorescence polarization, dose response (AID 1964);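 note: purified POS-1 fused to maltose binding protein made in E. coli; potency of compounds blocking POS-1 binding to fluorescent RNA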
T4 sequence (G5EF15 whole entry): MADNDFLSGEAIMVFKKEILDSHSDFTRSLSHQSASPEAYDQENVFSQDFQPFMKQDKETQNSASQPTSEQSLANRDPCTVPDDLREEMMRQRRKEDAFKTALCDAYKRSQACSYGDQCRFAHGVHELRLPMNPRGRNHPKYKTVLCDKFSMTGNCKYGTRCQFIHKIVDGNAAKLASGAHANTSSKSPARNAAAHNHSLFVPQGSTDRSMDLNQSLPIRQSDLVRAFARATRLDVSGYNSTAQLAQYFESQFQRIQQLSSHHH

[7] = target: T5, Zinc finger protein mex-5 (Caenorhabditis elegans, UniProt Q9XUB2); test: potency of MEX-5 RNA-binding blockers – biochemical, C. elegans, fluorescence polarization, dose response (AID 1960)
T5 sequence (Q9XUB2 whole entry): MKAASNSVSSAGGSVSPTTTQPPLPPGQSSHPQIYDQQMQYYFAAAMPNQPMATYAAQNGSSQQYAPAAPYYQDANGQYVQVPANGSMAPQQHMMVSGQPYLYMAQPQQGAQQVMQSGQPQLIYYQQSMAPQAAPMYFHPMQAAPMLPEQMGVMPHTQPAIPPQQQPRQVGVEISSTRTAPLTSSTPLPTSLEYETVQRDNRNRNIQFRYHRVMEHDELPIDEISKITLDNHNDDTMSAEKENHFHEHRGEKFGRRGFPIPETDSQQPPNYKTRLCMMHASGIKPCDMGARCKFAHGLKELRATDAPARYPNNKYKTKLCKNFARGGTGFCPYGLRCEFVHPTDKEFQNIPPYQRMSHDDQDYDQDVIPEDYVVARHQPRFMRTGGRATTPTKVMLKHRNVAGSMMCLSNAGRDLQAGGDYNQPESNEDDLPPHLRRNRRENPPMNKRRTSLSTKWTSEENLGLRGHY

[8] = test system: H9c2; test: cells; format: functional, cell-based; details: Rattus norvegicus, H9c2, Myocardium;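 note: confirmatory concentration-response retest of ultra-high-throughput screening hits for modulation of myocardial damage; cell death induced by hydrogen peroxide oxidative stress; compound pretreatment for 60 min then peroxide exposure for 2 h; potency is for protecting the cells against peroxide damage rather than for killing them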
[9] = luciferase reporter signal suppression in cells – H4 neuroglioma cells, luminescence, dose response (AID 1990); format: functional, cell-based
[10] = alpha-synuclein stem-loop luciferase translation blockers – H4 neuroglioma cells, luminescence, confirmation (AID 1988); format: functional, cell-based
[11] = Trypanosoma cruzi growth suppression in host cells – NIH3T3 host cells, beta-gal luminescence, confirmation (AID 2044); format: functional, cell-based;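 note: intracellular parasites grown in NIH/3T3 mouse fibroblasts as host cells; luminescent beta-galactosidase reporter signal from transgenic T. cruzi replicating inside host cells; inhibitors lower the luminescence signal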
[12] = NIH3T3 cell viability loss – ATP luminescence, mouse fibroblasts, counter-screen, dose response (AID 2010); format: functional, cell-based;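 note: cells exposed to compound for about 90 hours before reading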
[13] = test system: Streptococcus sp. 'group A'; test: Streptococcus pyogenes SK(-)GAS viability under kanamycin – luminescence, BacTiterGlo, confirmation, counter-screen for streptokinase expression inhibitor project, dose response (AID 1900); format: functional, organism-based
[14] = target: T6, Streptokinase A (Streptococcus pyogenes serotype M1, UniProt P10520); test: viability-normalized secreted streptokinase activity reduction – plasminogen activation absorbance, OD405, dose response (AID 1914); format: functional, Streptococcus pyogenes M1 GAS;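 note: secreted streptokinase activity via plasminogen activation per viability signal from cell pellet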
T6 sequence (P10520 whole entry): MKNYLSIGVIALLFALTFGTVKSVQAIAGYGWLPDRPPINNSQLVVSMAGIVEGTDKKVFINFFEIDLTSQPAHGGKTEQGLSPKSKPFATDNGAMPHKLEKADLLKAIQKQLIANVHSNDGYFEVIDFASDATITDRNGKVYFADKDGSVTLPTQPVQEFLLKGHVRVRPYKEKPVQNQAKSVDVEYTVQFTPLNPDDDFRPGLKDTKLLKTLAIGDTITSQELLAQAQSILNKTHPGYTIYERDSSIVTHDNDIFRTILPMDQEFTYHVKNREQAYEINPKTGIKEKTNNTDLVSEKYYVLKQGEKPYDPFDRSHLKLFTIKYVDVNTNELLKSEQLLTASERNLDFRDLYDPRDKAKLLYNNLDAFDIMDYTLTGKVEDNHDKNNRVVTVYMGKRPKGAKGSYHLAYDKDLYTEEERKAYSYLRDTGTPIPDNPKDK

[15] = test system: Streptococcus; test: GAS UMAA2166 growth inhibition – luminescence, BacTiterGlo, counter-screen for streptokinase expression inhibitor project, dose response (AID 1915); format: functional, organism-based;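 note: potency for reduction of bacterial viability or growth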
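Throughout, for AC50: cells exposed to compound for roughly 70 hours or longer before luminescence read.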

Structure (SMILES): Cc1cc(C)cc(NC(=O)Nc2ccc(-n3ccc(C(F)(F)F)n3)cc2)c1
- AC50 [1]: 1.61 µM (active)

Structure (SMILES): O=C(/C=C/c1ccco1)NC(=S)Nc1ccc(N2CCCC2)cc1
- IC50 [2]: > 66 µM (inactive)
- IC50 [3]: > 66 µM (inactive)

Structure (SMILES): CCOP(=O)(OCC)c1cccc(OP(=O)(c2cccc([N+](=O)[O-])c2)c2cccc([N+](=O)[O-])c2)c1
- EC50 [4]: > 195 µM (not active)

Structure (SMILES): NC(=O)CC(NC(=O)Cc1ccc(Br)cc1)c1ccc(NCc2cc(F)ccc2F)c([N+](=O)[O-])c1 (stereo not drawn)
- AC50 [1]: 2.52 µM (active)

Structure (SMILES): Cc1ccc(Cl)cc1NC(=O)C1COc2ccccc2O1 (stereo not drawn)
- EC50 [4]: > 195 µM (not active)

Structure (SMILES): COc1ccc(C(=O)N2CCN=C2SCc2cccnc2)cc1OC
- EC50 [4]: > 195 µM (not active)

Structure (SMILES): c1ccc(Cc2nn3c(-c4ccncc4)nnc3s2)cc1
- IC50 [2]: > 66 µM (inactive)
- IC50 [3]: > 66 µM (inactive)

Structure (SMILES): CCOc1cc(NC(=O)c2ccccn2)c(OCC)cc1NC(=O)c1ccccc1
- AC50 [1]: 24.4 µM (active)

Structure (SMILES): CCN(CCS(=O)(=O)c1ccc(Cl)cc1)C(=O)Nc1ccccc1
- EC50 [4]: > 195 µM (not active)

Structure (SMILES): CCOC(=O)N1CCN(S(=O)(=O)c2ccc3c(c2)OCC(=O)N3)CC1
- EC50 [4]: > 195 µM (not active)

Structure (SMILES): Cc1cc(C(=O)NC2CCCN(Cc3ccc(Cl)cc3)C2)n(C)n1 (stereo not drawn)
- EC50 [4]: > 195 µM (not active)

Structure (SMILES): COc1cc(OC)c(Cl)cc1N
- IC50 [5]: 35.9 µM (active)

Structure (SMILES): O=C(Nc1ccc(OC(F)F)c(Cl)c1)Nc1ccc2c(c1)OCO2
- AC50 [1]: 2.04 µM (active)

Structure (SMILES): CCN(c1ccccc1)S(=O)(=O)c1c[nH]cn1
- EC50 [4]: > 195 µM (not active)

Structure (SMILES): COc1cc2sc(-c3ccccc3OC)c(-c3ccc(O)cc3)c2cc1OC
- AC50 [1]: 2.32 µM (active)

Structure (SMILES): Nc1ccc2c(c1)Oc1ccccc1C=C2
- AC50 [1]: > 195 µM (inactive)

Structure (SMILES): CCN1C(=O)/C(=C2\SC(=S)N(c3c(C)n(C)n(-c4ccccc4)c3=O)C2=O)c2ccccc21
- IC50 [2]: > 66 µM (inactive)
- IC50 [3]: > 66 µM (inactive)

Structure (SMILES): CS(=O)(=O)N(Cc1ccccc1)c1ccc(C(=O)NCCSCc2ccco2)cc1
- IC50 [2]: > 66 µM (inactive)
- IC50 [3]: > 66 µM (inactive)

Structure (SMILES): COc1cc(/C=C/C(=O)OCC(=O)NC(=O)NC(C)C)ccc1O
- IC50 [5]: 47.7 µM (active)

Structure (SMILES): Fc1ccc(CNCCc2ccccc2)cc1
- IC50 [5]: 249 µM (active)

Structure (SMILES): Cc1csc(=O)n1CCC(=O)OCC(=O)NNC(=O)c1ccc(Cl)cc1
- IC50 [2]: > 66 µM (inactive)
- IC50 [3]: > 66 µM (inactive)

Structure (SMILES): COc1ccc(-c2cc(C(=O)Nc3ccc(O)cc3)c3ccccc3n2)cc1OC
- IC50 [5]: 159 µM (active)

Structure (SMILES): O=C(CN1CCCCCC1)NN(Cc1ccccc1)c1ccccc1
- IC50 [5]: 301 µM (active)

Structure (SMILES): Cc1nc2cc(C(=O)O)ccc2s1
- IC50 [2]: > 66 µM (inactive)
- IC50 [3]: > 66 µM (inactive)

Structure (SMILES): O=C(CN1CCN(C/C=C/c2ccccc2)CC1)Nc1ccccc1C(=O)NC1CC1
- IC50 [5]: 90.5 µM (active)

Structure (SMILES): NN=C(S)NC1CC2CC1C1C=CCC21 (stereo not drawn)
- EC50 [4]: > 195 µM (not active)

Structure (SMILES): CCN1C(=O)/C(=C/c2ccc(OC)c(OC)c2)N=C1SCC(=O)NCc1ccco1
- IC50 [2]: > 66 µM (inactive)
- IC50 [3]: > 66 µM (inactive)

Structure (SMILES): COC(=O)c1[nH]c2cc(OC)c(OC)cc2c1/C=N/Nc1ccccc1
- EC50 [6]: 20 µM (active)
- EC50 [7]: 20.3 µM (inconclusive)
- IC50 [8]: > 79 µM (inactive)

Structure (SMILES): O=C(c1cc2c(s1)-c1ccccc1OC2)N1CCN(c2ccccc2)CC1
- EC50 [4]: > 195 µM (not active)

Structure (SMILES): CCn1nc(CC(C)C)cc1C(=O)N1CCCC(Nc2ccc(OC)cc2)C1 (stereo not drawn)
- IC50 [5]: 121 µM (active)

Structure (SMILES): CCCSc1nnc(CNS(=O)(=O)c2ccc(C)cc2)n1C
- EC50 [4]: > 195 µM (not active)

Structure (SMILES): COc1cccc2sc(Nc3nc(-c4ccncc4)cs3)nc12
- EC50 [9]: 3.2 µM (active)
- EC50 [10]: 0.601 µM (active)
- EC50 [11]: 2.41 µM (active)
- EC50 [12]: 3.65 µM (active)

Structure (SMILES): Nc1ccc(N=Nc2ccccc2)c2ccccc12
- EC50 [13]: 8.03 µM (active)
- EC50 [14]: > 150 µM (not active)
- EC50 [15]: 9.13 µM (active)
- AC50 [1]: 6.49 µM (active)

Structure (SMILES): O=C(CN1C(=O)C2CC=CCC2C1=O)Nc1nc(-c2ccc(F)cc2)cs1 (stereo not drawn)
- IC50 [8]: > 79 µM (inactive)

Structure (SMILES): COc1cccc(OCC(O)CN2CCN(C)CC2)c1 (stereo not drawn)
- IC50 [5]: 74.6 µM (active)

Structure (SMILES): CCCN1CCc2c(sc(NC(=O)c3ccc(S(=O)(=O)N(C)c4ccccc4)cc3)c2C(=O)NC)C1
- AC50 [1]: 3.26 µM (active)

Structure (SMILES): Cc1ccc(C(c2sc3ncnn3c2O)N2CC(C)CC(C)C2)cc1 (stereo not drawn)
- EC50 [4]: > 195 µM (not active)

Structure (SMILES): CCN(CC)c1ccc(/C=N/NC(=O)c2cc3ccccc3[nH]2)cc1
- IC50 [5]: 146 µM (active)
